Measurements published in publication PMC6662706, “Short amylin receptor antagonist peptides improve memory deficits in Alzheimer’s disease mouse model” (Scientific Reports, 2019).
Positions of bridges follow the written chain, without caps; N, C: chain ends. No end group written: not given here.

Experiments:
[1] = Brain uptake of R5 compared with davalintide, wild-type and het CTR mice; assay type: in vivo, mouse; settings: Cy5.5 labeled, ip 0.1 mmole, intact brain imaged 2 h post-injection, wild-type and het CTR mice, n=5 per group
Method: For peptide R5 brain uptake in comparison to Davlintide, wild-type littermate (C57BL/6 background) mice and heterozygous CTR knockdown mice (50% CTR expression level compared to wild type control mice and presumably with 50% AMY receptor expression level) was used (n=5 in each group). Mouse brains were extracted after 2h from a single injection and fluorescence in brains was quantified as mentioned above.
Supplementary Figure S3: The comparison of brain permeability for R5 and Davalintide.

[2] = In vitro proteolytic stability in human serum; assay type: in vitro ADME; settings: 37°C, intact peptide at different time points estimated by RP-HPLC
Method: Subsequently, we investigated the proteolytic stability of R5, and R14 compared to AC253. […] By assessing the main degradation fragments for both peptides using MALDI-TOF, we found both peptides to be cleaved at the basic arginine amino acids.
Supplementary Figure S2: The comparison of bio-distribution for the fragments and their parent peptide. (A) Ex vivo fluorescence showing bio-distribution images for Cy5.5-R5, R14, AC253 in different organs at after a 2 h of a single ip injection of the peptides (0.1 mmol in 200µl saline). (B) Quantification of peptides fluorescence in each organ (n=3). (C) In vitro stability of R5, R14, and AC253 peptides in human serum compared with AC253 at 37°C. The amount of intact peptide in human serum at different time points was estimated using RP-HPLC.

[3] = Ex vivo NIR fluorescence brain imaging after ip injection (brain penetration); assay type: in vivo, mouse; settings: wild-type mice, 0, 0.6, 2, 10, 20 mg/kg single ip dose, 2 h, n = 3 per dose
Excerpt: Blood brain barrier (BBB) penetration can limit the potential of long sequence peptides as therapeutic agents in central nervous system (CNS). Previously, we have reported that a cyclized form of AC253 peptide and to a lesser degree its linear form can both penetrate the BBB at therapeutically relevant levels, and are localized to the hippocampus and cortex, regions relevant to memory and learning processes. Therefore, we examined the ability of Cy5.5 labeled peptide fragments (R5, and R14) to penetrate BBB in wild-type mice using NIR fluorescence ex vivo brain imaging. Brain fluorescence resulting from either R5 or R14 was assessed against full length AC253 2 h after a single intraperitoneal (ip) injection of peptides. […] Fluorescence signals were distributed throughout the cortex, but particularly strong within the hippocampal regions, where a very high density of amylin receptor expression has been reported. […]
In vivo brain penetration and pharmacokinetics of the peptides were determined in 6-month-old male or female wild-type (C57BL/6 background) and heterozygous CTR mice (het-CTR). […]
For ex vivo imaging experiments and peptide brain uptake, we used age matched 6-month-old wild-type littermate (C57BL/6 background) mice. […] Region of interest was drawn around the brain region and analyzed using the Kodak ID 3.6 software and the mean fluorescence intensity was recorded. […]

[4] = target: T1, AMY3 receptor (CTR+RAMP3) expressed on HEK293 cells (HEK-AMY3) (Homo sapiens, UniProt O60896+P30988); assay: Peptide array-cell binding assay (SPOT cellulose membrane, GFP-labeled cells); settings: library R1-R14 on cellulose membrane, GFP-labeled HEK-AMY3 vs HEK-WT and HEK-CTR cells
T1 construct: expressed in transfected cells
T1 sequence (P30988 25-474): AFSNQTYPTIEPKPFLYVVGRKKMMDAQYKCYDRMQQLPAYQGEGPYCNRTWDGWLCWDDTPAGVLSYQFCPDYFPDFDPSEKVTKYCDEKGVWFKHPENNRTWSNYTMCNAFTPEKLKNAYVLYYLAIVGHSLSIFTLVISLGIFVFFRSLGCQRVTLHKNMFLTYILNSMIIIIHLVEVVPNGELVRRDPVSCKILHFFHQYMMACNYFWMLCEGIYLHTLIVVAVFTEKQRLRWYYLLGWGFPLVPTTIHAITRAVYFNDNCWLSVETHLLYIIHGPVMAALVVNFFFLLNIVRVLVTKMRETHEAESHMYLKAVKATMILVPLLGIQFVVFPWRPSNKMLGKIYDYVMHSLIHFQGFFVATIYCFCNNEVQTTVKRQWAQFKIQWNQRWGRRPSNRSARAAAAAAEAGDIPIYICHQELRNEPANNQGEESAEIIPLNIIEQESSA
T1 sequence (O60896 24-148): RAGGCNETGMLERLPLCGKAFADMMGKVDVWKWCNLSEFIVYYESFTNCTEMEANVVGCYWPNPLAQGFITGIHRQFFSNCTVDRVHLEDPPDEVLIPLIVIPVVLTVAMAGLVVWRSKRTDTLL
Excerpt: In order to identify shorter peptides with selective recognition and binding to amylin receptor, enhanced metabolic stability and brain penetrability than the linear full length peptide, we designed a peptide library comprised of 14 different sequences, namely, R1-R14. Fragments (R1−R13) are 12 amino acids in length and peptide R14 is 14 amino acids. The initial fragment comprised the first 12 amino acids from the N-terminus of AC253 sequence, and subsequent fragments derived from shifting one amino acid at a time, as depicted in Supplemental Fig. S1A. […] The relative binding affinities of peptide fragments were determined through measuring and plotting the net fluorescence intensity of the bound GFP labeled live cells on each spot as measured with a fluorescence Kodak imager (Supplemental Fig. S1C). […]
To screen peptide library for amylin receptor binding affinity, transfected GFP-positive Human Embryonic Kidney 293 cells that express AMY3 receptor (CTR+RAMP3) as previously reported was used ^8. […] The membrane was scanned at 465 nm excitation and 535 nm emission and the net fluorescence intensity of each peptide spot was quantified using Kodak IS2000MM Image station (GE Healthcare Systems/ART Inc). […]

hippocampal LTP (CA1) = assay: Hippocampal long-term potentiation (LTP) in slices from wild type mice; design: species or system mouse; settings: wild type mouse slices, 250 nM
Method: We examined whether the peptide fragments were capable of influencing Aβ- or hAmylin-induced reduction of hippocampal LTP in mice. Exposure of hippocampal slices from wild-type mice to hAmylin (50 nM) or Aβ (50 nM) depressed LTP induced by a weak tetanization protocol at the CA1 region as previously reported[20],[30]. To determine whether peptides affected hAmylin or Aβ- induced depression of LTP, we applied 250 nM R5 or R14 continuously for 5 min prior to exposure of the hippocampal slices to 50 nM hAmylin or Aβ and the subsequent LTP induction. […] We therefore sought to determine whether peptide fragments were also capable of improving LTP levels in the same TgCRND8 AD mouse model. […] Importantly, doses of the short peptide fragments used in these experiments were equimolar to those used for AC253 and pramlintide in our previous studies[20],[30].
For electrophysiology experiment, hippocampal slices (400-μm thick) were prepared using a vibratome from wild type and TgCRND8 mice (8 month of age, male or female). For long-term potentiation (LTP) measurement, the stimulus strength was set to elicit 40–50% of the maximum fEPSP (field excitatory postsynaptic potential) amplitude and test pulses were delivered once every 30s. LTP was induced by 3-theta-burst stimulation protocol (each burst consisted of four pulses at 100 Hz with a 200-ms interburst interval). All drugs and chemicals were applied directly to the slice via bath perfusion.
Brains were quickly removed from mice following decapitation, placed in a cold artificial cerebral spinal fluid (aCSF) on a vibratome chamber, and transverse sections cut through the hippocampus. The aCSF contained (in millimolar 124 NaCl, 3 KCl, 2.4 CaCl2, 2 MgCl2, 1.25 NaH2PO4, 26 NaHCO3, and 10 D-glucose and was equilibrated with 95 % O2 and 5 % CO2. Hippocampal slices (400-μm thick) were maintained in aCSF-filled holding chamber at room temperature for at least 1 h and individually transferred to the submerged glass bottom recording chamber, which was constantly perfused with aCSF (2 ml/min) at 30 °C. Field excitatory postsynaptic potential (fEPSP) was recorded with a metallic (Pt/Ir) electrode (FHC, Bowdoin, ME) from the stratum radiatum layer of Cornu ammonis 1 region of the hippocampus (CA1) area, and the Schaffer collateral afferents were stimulated with 100-μs test pulses via a bipolar cluster electrode (FHC). For long-term potentiation (LTP) experiments, the stimulus strength was set to elicit 40–50 % of the maximum fEPSP amplitude and test pulses were delivered to Schaffer collaterals once every 30 s. […] Before 3-TBS or drug application, the responses were monitored for at least 10 min to ensure a stable baseline of fEPSP. […]

[5] = design: method as in PMID 29067318; settings: mouse, not told; cited from earlier work

## davalintide [reference compound]
[1]
  brain permeability, R5 versus davalintide: lower brain permeability

## LGRLSQELHRLQTY-NH2 [R14]
[2]
  half-life: 1.5 h
[3]
  accumulation in the brain at increasing dose: dose-dependent

## LQTYPRTNTGSN [R11]
[4]
  relative binding to HEK-AMY3 cells in library screening: minimal binding
Hippocampal LTP (CA1)
  effect of peptide alone on hippocampal LTP: did not impair LTP

## pramlintide: synthetic analog of amylin (KCNTATCATQRLANFLVHSSNNFGPILPPTNVGSNTY-NH2; disulfide 2-7; chains of the INN, looked up)
[5]
  brain permeability after systemic administration compared with cAC253 or R5: lower brain permeability
